Data published in paper PMC7181660, “A novel specific PERK activator reduces toxicity and extends survival in Huntington's disease models” (Scientific Reports, 2020).
Read-outs that look alike come from different tables or passages of the source.

Key:
Assay in all cases: biochemical
Format in all cases: biochemical
[1] = target: panel of 391 kinases (Homo sapiens, UniProt P09619); conditions: PDGFRb, MK-28 1 µM, ATP 1 µM
[2] = target: panel of 391 kinases (Homo sapiens, UniProt P45983); conditions: JNK1, MK-28 1 µM, ATP 1 µM
[3] = target: panel of 391 kinases (Homo sapiens, UniProt P05771); conditions: PKCb1, MK-28 1 µM, ATP 1 µM
[4] = target: panel of 391 kinases (Homo sapiens, UniProt O15530); conditions: PDK1/PDPK1, MK-28 1 µM, ATP 1 µM
[5] = target: panel of 391 kinases (Homo sapiens, UniProt P36897); conditions: ALK5/TGFBR1, MK-28 1 µM, ATP 1 µM
[6] = target: panel of 391 kinases (Homo sapiens, UniProt O75460); conditions: ERN1/IRE1, MK-28 1 µM, ATP 1 µM
[7] = target: panel of 391 kinases (Homo sapiens, UniProt Q8IVH8); conditions: GLK/MAP4K3, MK-28 1 µM, ATP 1 µM
[8] = target: panel of 391 kinases (Homo sapiens, UniProt Q8IWQ3); conditions: BRSK2, MK-28 1 µM, ATP 1 µM
[9] = target: panel of 391 kinases (Homo sapiens, UniProt Q13470); conditions: TNK1, MK-28 1 µM, ATP 1 µM
[10] = target: T1, panel of 391 kinases (Homo sapiens, UniProt Q9NZJ5)
T1 sequence (Q9NZJ5 30-1116): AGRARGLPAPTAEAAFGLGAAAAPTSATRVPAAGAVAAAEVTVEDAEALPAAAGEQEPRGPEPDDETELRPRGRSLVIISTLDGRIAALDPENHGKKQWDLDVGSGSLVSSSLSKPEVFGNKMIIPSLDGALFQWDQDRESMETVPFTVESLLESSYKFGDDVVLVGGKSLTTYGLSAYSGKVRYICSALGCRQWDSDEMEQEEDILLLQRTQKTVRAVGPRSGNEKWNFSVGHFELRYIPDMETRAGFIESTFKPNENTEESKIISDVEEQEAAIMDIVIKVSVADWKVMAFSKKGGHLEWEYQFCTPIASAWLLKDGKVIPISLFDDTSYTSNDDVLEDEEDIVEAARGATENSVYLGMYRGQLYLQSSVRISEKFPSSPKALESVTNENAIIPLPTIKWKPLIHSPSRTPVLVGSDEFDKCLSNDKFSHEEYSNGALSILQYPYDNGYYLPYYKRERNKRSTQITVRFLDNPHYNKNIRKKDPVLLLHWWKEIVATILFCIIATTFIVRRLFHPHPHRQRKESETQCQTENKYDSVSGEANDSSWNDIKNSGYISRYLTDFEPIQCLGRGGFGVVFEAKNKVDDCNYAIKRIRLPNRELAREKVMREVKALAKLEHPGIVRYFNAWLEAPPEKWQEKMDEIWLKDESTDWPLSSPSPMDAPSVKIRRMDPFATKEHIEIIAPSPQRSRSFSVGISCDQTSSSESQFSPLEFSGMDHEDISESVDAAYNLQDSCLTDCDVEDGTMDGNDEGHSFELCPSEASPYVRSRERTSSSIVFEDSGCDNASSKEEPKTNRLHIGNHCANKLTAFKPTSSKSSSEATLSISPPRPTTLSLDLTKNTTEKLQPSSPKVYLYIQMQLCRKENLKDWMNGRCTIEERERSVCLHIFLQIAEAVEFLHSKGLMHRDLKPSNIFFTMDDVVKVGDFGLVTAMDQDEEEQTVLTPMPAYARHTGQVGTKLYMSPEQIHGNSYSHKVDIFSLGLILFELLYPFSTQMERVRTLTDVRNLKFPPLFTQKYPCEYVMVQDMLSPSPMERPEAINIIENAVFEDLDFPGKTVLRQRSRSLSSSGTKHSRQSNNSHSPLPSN

[11] = target: panel of 391 kinases (Homo sapiens, UniProt P34947); conditions: GRK5, MK-28 1 µM, ATP 1 µM
[12] = target: panel of 391 kinases (Homo sapiens, UniProt O94921); conditions: CDK14/cyclin Y (PFTK1), MK-28 1 µM, ATP 1 µM
[13] = target: panel of 391 kinases (Homo sapiens, UniProt Q15418); conditions: RSK1, MK-28 1 µM, ATP 1 µM
[14] = target: panel of 391 kinases (Homo sapiens, UniProt Q15746); conditions: MLCK/MYLK, MK-28 1 µM, ATP 1 µM
[15] = read-out: % Enzyme Activity (relative to DMSO controls)

In the case of `CN(/N=C\c1ccc(O)c(O)c1)c1nc(-c2ccccc2)cc(-c2ccccc2)n1` [MK-28], the “% Enzyme Activity (relative to DMSO controls)” value [1] is reported as 99.16%, the remaining activity at 1 µM [1, 15] is reported as 99.5% and the “% Enzyme Activity (relative to DMSO controls)” value [2] is reported as 98.63%. The remaining activity at 1 µM [2, 15] was 99.6%, the “% Enzyme Activity (relative to DMSO controls)” value [3] was 108.67% and the remaining activity at 1 µM [3, 15] was 111%. The “% Enzyme Activity (relative to DMSO controls)” value [4] was 99.62%, the remaining activity at 1 µM [4, 15] was 100% and the “% Enzyme Activity (relative to DMSO controls)” value [5] was 96.61%. For the same compound, the remaining activity at 1 µM [5, 15] was 97.7%, the “% Enzyme Activity (relative to DMSO controls)” value [6] was 104.22% and the remaining activity at 1 µM [6, 15] was 105%. The “% Enzyme Activity (relative to DMSO controls)” value [7] was 94.50%, the remaining activity at 1 µM [7, 15] was 95.9% and the “% Enzyme Activity (relative to DMSO controls)” value [8] was 99.36%. The remaining activity at 1 µM [8, 15] was 101%, the “% Enzyme Activity (relative to DMSO controls)” value [9] was 104.14% and the remaining activity at 1 µM [9, 15] was 108%. For the same compound, the remaining activity at 1 µM ([10]; 1 μM, duplicate, 391-kinase panel, read-out: PERK (EIF2AK3) activity, % of the control) was 181%, the “% Enzyme Activity (relative to DMSO controls)” value ([10]; kinase EIF2AK3, compound at 1 µM, single dose in duplicates, 1 µM ATP) was 175.07% and the remaining activity at 1 µM ([10]; kinase EIF2AK3, compound at 1 µM, single dose in duplicates, 1 µM ATP, read-out: % Enzyme Activity (relative to DMSO controls)) was 188%. For the same compound, the “% Enzyme Activity (relative to DMSO controls)” value [11] was 103.49%, the remaining activity at 1 µM [11, 15] was 104% and the “% Enzyme Activity (relative to DMSO controls)” value [12] was 103.85%. The remaining activity at 1 µM [12, 15] was 105%, the “% Enzyme Activity (relative to DMSO controls)” value [13] was 96.73% and the remaining activity at 1 µM [13, 15] was 96.8%. The “% Enzyme Activity (relative to DMSO controls)” value [14] was 91.99% and the remaining activity at 1 µM [14, 15] was 93%.
